Columns and labels:
[1] = format: physicochemical
Protocol: The solubility of triacetyl-resveratrol and of trimethylether of resveratrol in an aqueous solution (of the same composition described in example 1) in presence of CMG was evaluated. In particular, the solubility in aqueous phase of triacetyl-resveratrol and of trimethyl ether of resveratrol was evaluated at first and this value was considered unitary.

[2] = Solubility of resveratrol in buffered aqueous solution in presence of CMG, determined by HPLC; format: physicochemical
Protocol: (§1) The chromatographic method devised for determining resveratrol provides the use of a HPLC Waters system constituted by a pump, 600 model, by a Waters self-sampler mod. 717 and by a UV-Visible Photodiode array detector mod 2996. The system is handled by the Millenium^32 software. The used chromatographic column is a Symmetry C-18 with length of 15 cm, associated to a specific pre-column of same material with length of 1 cm. The elution is performed under isocratic conditions by using the following mixtures: • 1) 30% [Acetic acid 0.1 % in methanol] e 70% [Acetic acid 0.1 % in water] • 2) 80% [Acetic acid 10% in water] and 20% [Acetonitrile]. For the measurements 50 µL of sample are taken, diluted in 500µL of mobile phase and an aliquot of 50µL is injected in HPLC.
The solutions of CMG and resveratrol have always been prepared in a buffered, isotonic, physiological pH-containing aqueous solution, constituted by: • dipotassium phosphate 0.74% • sodium chloride 0.42% • potassium phosphate 0.175%
All solutions were cold-prepared and without using any organic solvent.
In order to evaluate the solubility, with consequent effect on the bioavailability thereof, formulations were prepared containing resveratrol in association with CMG at increasing concentrations (from 0.5 mg/ml to 10 mg/ml) in a ratio 1:1, in an aqueous solution of the above-mentioned composition. […]

[3] = Stability over time of resveratrol in aqueous solution (25°C, closed, protected from light), HPLC; format: physicochemical; conditions: resveratrol alone 0.03 mg/ml
Protocol: as §1
The examined concentration of the solution of resveratrol was 0.03 mg/ml, corresponding to the maximum quantity which can be solubilized in water of the original product. […] The two solutions were kept under the same conditions described above for the solution of resveratrol only and they were evaluated in different moments as from the time of the preparation thereof. […]

VERO cellular line = experiment: Cellular metabolic activity, MTT assay; format: cell-based; conditions: VERO cells, resveratrol 0.5 mg/ml (2.2 mM), 6 hours after exposition, versus not treated cells (CTRL)
Protocol: The cellular metabolic activity is evaluated on VERO cellular line, by means of MTT cellular proliferation assay (3-(4,5-dimethylthiazole-2-il)-2,5-diphenyltetrazolium bromide). The test with MTT is a simple method for determining the metabolic activation of the cells and it is based upon the action of the mitochondrial enzyme succinate dehydrogenase reducing the tetrazolium salts in crystals of a bluish product called formazan. Therefore the reaction can take place only in the metabolically active cells and the value of optical density (O.D.), obtained by means of spectrophotometric reading, can be correlated to the quantity of existing vital cells.
Upon considering the application of the association CMG-resveratrol for the formulation of pharmaceutical products, dietary supplies, medical devices, cosmetic products, functional pieces of food, veterinary products, with consequent interaction with the biological systems of men and animals in general, even the possible cytotoxycity was evaluated. In particular tests of cellular metabolic activity in presence of resveratrol and CMG on VERO cellular line were performed. […]
6 hours after exposition to these substances MTT colouring agent was added, then the formazan produced by the metabolically active cells was extracted with isopropanol and the optical density measured at 570 nm by subtracting the reference value at 690 nm. […]

For `COc1ccc(/C=C/c2cc(OC)cc(OC)c2)cc1` [trimethylether of resveratrol], which “increase of solubility in presence of CMG, relative to solubility of the pure compound considered unitary” value [1] is on record?
Its value is “three times”.

Which “increase of solubility in presence of CMG, relative to solubility of the pure compound considered unitary” value [1] does the source give for `CC(=O)Oc1ccc(/C=C/c2cc(OC(C)=O)cc(OC(C)=O)c2)cc1` [triacetylresveratrol, triacetyl-resveratrol] here?
Its value is “more than one and a half time”.

What does the source list for `Oc1ccc(C=Cc2cc(O)cc(O)c2)cc1` [resveratrol, 3,4',5-trihydroxystilbene]?
concentration of CMG from which highly solubilizing action on resveratrol is confirmed [2]: ≥ 250 µg/mL; solubilization higher than what reported in literature [2]: at least 100 times; stability of resveratrol in buffer solution ([3]; after 2 months): strong degradation; stability of resveratrol in buffer solution ([3]; after 7 months): no more detected; reduction in the cellular metabolic activity (VERO cellular line): 20%
